The source of these data is patent US20200288710A1, “SUBSTITUTED SULPHONAMIDES FOR CONTROLLING ANIMAL PESTS” (BAYER CROPSCIENCE AKTIENGESELLSCHAFT, priority 2016, published 2020).

For experiment [1], the system named is Myzus persicae. The experiment can be described thus: Myzus persicae spray test (Chinese cabbage leaf discs). Format: in vivo. Particulars: foliar, 120 h, 500 g/ha, after 5-6 days, read-out: efficacy. On the procedure:
Myzus persicae—Spray Test Solvent: 78 parts by weight of acetone • • 1.5 parts by weight of dimethylformamide Emulsifier: alkylaryl polyglycol ether To produce a suitable preparation of active compound, 1 part by weight of active compound is dissolved using the specified parts by weight of solvent and made up with water containing an emulsifier concentration of 1000 ppm until the desired concentration is attained. To produce further test concentrations, the formulation is diluted with emulsifier-containing water. Discs of Chinese cabbage leaves (Brassica pekinensis) infested by all stages of the green peach aphid (Myzus persicae) are sprayed with an active compound preparation of the desired concentration. After 5-6 days, the efficacy in % is determined. 100% means that all the aphids have been killed; 0% means that no aphids have been killed.

Experiment [2] deals with Myzus persicae. The experiment can be described thus: Myzus persicae oral test. Format: in vivo. Particulars: 120 h, 20 ppm, oral uptake, after 5 days, read-out: efficacy. On the procedure:
Myzus persicae—Oral Test Solvent: 100 parts by weight of acetone To produce a suitable preparation of active compound, 1 part by weight of active compound is dissolved using the specified parts by weight of solvent and made up with water until the desired concentration is attained. 50 μl of the active compound preparation are transferred into microtitre plates and made up to a final volume of 200 μl with 150 μl of IPL41 insect medium (33%+15% sugar). Subsequently, the plates are sealed with parafilm, which a mixed population of green peach aphids (Myzus persicae) within a second microtitre plate is able to puncture and imbibe the solution through it. After 5 days, the efficacy in % is determined. 100% means that all the aphids have been killed; 0% means that no aphids have been killed.

`Cn1cc(C(=O)NS(=O)(=O)c2ccccc2C(F)(F)F)nc1-c1c(F)cc(F)cc1F` [Example 5]: in the experiment on Myzus persicae [1], the pest or weed control at 500 g/ha was 90%. Turning to `Cn1cc(C(=O)NS(=O)(=O)c2c(F)cccc2F)nc1-c1c(Cl)cccc1Cl` [Example 24], in the experiment on Myzus persicae [1], the pest or weed control at 500 g/ha is 90%. As for `Cn1cc(C(=O)NS(C)(=O)=O)nc1-c1ccccc1Cl` [Example 65], the pest or weed control at 500 g/ha in the experiment with Myzus persicae [1] was determined as 90%. `CS(=O)(=O)NC(=O)c1cn(-c2cccc(Cl)c2)c(-c2ccccc2Cl)n1` [Example 72]: the pest or weed control at 500 g/ha in the experiment with Myzus persicae [1] was determined as 90%. Turning to `Cn1cc(C(=O)NS(=O)(=O)CC(F)(F)F)nc1-c1c(Cl)cccc1Cl` [Example 80], the pest or weed control at 500 g/ha in the experiment with Myzus persicae [1] was found to be 90%. `Cn1cc(C(=O)NS(C)(=O)=O)nc1-c1c(Cl)cccc1Cl` [Example 83]: the pest or weed control at 500 g/ha with Myzus persicae [1] was found to be 90%.

Regarding `Cn1cc(C(=O)NS(=O)(=O)CC(F)(F)F)nc1-c1c(F)cccc1F` [Example 84], the pest or weed control at 500 g/ha in the experiment on Myzus persicae [1] worked out at 100%. On to `CCS(=O)(=O)NC(=O)c1cn(C)c(-c2c(F)cccc2F)n1` [Example 86], for which, in the experiment on Myzus persicae [1], the pest or weed control at 500 g/ha was 100%. In the case of `CCS(=O)(=O)NC(=O)c1cn(C)c(-c2ccccc2C)n1` [Example 89], the pest or weed control at 500 g/ha with Myzus persicae [1] came to 90%. On to `Cn1cc(C(=O)NS(=O)(=O)CC(F)(F)F)nc1-c1ccccc1F` [Example 90], for which the pest or weed control at 500 g/ha in the experiment on Myzus persicae [1] amounted to 100%. For `CCc1[nH]c(-c2ccccc2Cl)nc1C(=O)NS(=O)(=O)C(C)C` [Example 121], the pest or weed control at 500 g/ha with Myzus persicae [1] was found to be 90%. Consider `CCc1[nH]c(-c2cccc(OC)c2)nc1C(=O)NS(=O)(=O)c1ccccc1Cl` [Example 122], for which the pest or weed control at 500 g/ha with Myzus persicae [1] stood at 90%. As for `CCc1[nH]c(-c2cccc(Cl)c2)nc1C(=O)NS(=O)(=O)c1cc(OC)ccc1Cl` [Example 130], the pest or weed control at 20 ppm in the experiment on Myzus persicae [2] stood at 90%.

In the case of `CCc1[nH]c(-c2cccc(Cl)c2)nc1C(=O)NS(=O)(=O)C(C)C` [Example 131], the pest or weed control at 20 ppm in the experiment with Myzus persicae [2] was 90%. For the compound `Cn1cc(C(=O)NS(=O)(=O)c2ccccc2N)nc1-c1ccccc1Cl` [Example 132], the pest or weed control at 20 ppm in the experiment with Myzus persicae [2] came to 100%. On the same count and under the same terms, to `CCc1[nH]c(-c2cccc(Br)c2)nc1C(=O)NS(=O)(=O)c1ccccc1Cl` [Example 136] belongs 90%; to `CCc1[nH]c(-c2cc(Cl)cc(Cl)c2)nc1C(=O)NS(=O)(=O)c1ccccc1OC` [Example 137], 90%; to `Cc1ccccc1S(=O)(=O)NC(=O)c1cnc(-c2c(F)cccc2F)n1C` [Example 163], 100%. On the same count and under the same terms, to `CCCOc1ccc(Cl)c(S(=O)(=O)NC(=O)c2cn(C)c(-c3c(F)cccc3F)n2)c1` [Example 180] belongs 100%. As for `COc1ccc(Cl)c(S(=O)(=O)NC(=O)c2nc(-c3c(F)cccc3F)[nH]c2C)c1` [Example 191], the pest or weed control at 20 ppm with Myzus persicae [2] stood at 90%. On to `CCc1c(C(=O)NS(=O)(=O)c2ccccc2Br)nc(-c2c(F)cccc2F)n1C` [Example 198], for which the pest or weed control at 20 ppm with Myzus persicae [2] was determined as 100%. The same measure, in the same setting: the same measure for `COc1ccc(Cl)c(S(=O)(=O)NC(=O)c2nc(-c3ccccc3Cl)c(C)[nH]2)c1` [Example 201]: 100%; for `CCc1[nH]c(-c2c(C)cccc2C)nc1C(=O)NS(=O)(=O)c1ccccc1Cl` [Example 208]: 90%. As for `CSc1ccccc1-c1nc(C(=O)NS(=O)(=O)c2ccccc2Cl)cn1C` [Example 213], the pest or weed control at 20 ppm with Myzus persicae [2] came out at 100%. On the same count and under the same terms, the same measure for `CSc1ccccc1-c1nc(C(=O)NS(=O)(=O)c2ccccc2C)cn1C` [Example 214]: 100%; for `COc1ccccc1S(=O)(=O)NC(=O)c1cn(C)c(-c2ccccc2SC)n1` [Example 215]: 90%. `Cc1[nH]c(-c2cccc(Cl)c2)nc1C(=O)NS(=O)(=O)C(C)C` [Example 236]: the pest or weed control at 20 ppm in the experiment on Myzus persicae [2] is 90%.

Take `CCc1[nH]c(-c2ccc(F)cc2F)nc1C(=O)NS(=O)(=O)c1ccccc1C` [Example 245]: the pest or weed control at 20 ppm in the experiment on Myzus persicae [2] amounted to 100%.

In the case of `CCc1[nH]c(-c2cccc(C(F)(F)F)c2)nc1C(=O)NS(=O)(=O)c1ccccc1Cl` [Example 247], the pest or weed control at 20 ppm in the experiment on Myzus persicae [2] is 100%. For `CCc1[nH]c(-c2cccc(C(F)(F)F)c2)nc1C(=O)NS(=O)(=O)C(C)C` [Example 248], the pest or weed control at 20 ppm with Myzus persicae [2] stood at 100%.

`Cc1cc(C(=O)NS(=O)(=O)c2ccc(Cl)s2)nn1-c1cc(Cl)ccc1Cl` [Example 299]: in the experiment on Myzus persicae [2], the pest or weed control at 20 ppm is 90%. With `Cc1cc(C(=O)NS(=O)(=O)c2ccccc2Br)nn1-c1cccc(Cl)c1Cl` [Example 302], the pest or weed control at 20 ppm in the experiment with Myzus persicae [2] is 100%.

Take `Cc1ccc(F)cc1S(=O)(=O)NC(=O)c1cc(C)n(-c2cccc(Cl)c2Cl)n1` [Example 305]: the pest or weed control at 20 ppm in the experiment with Myzus persicae [2] was 90%.

Turning to `Cc1cccc(Cl)c1S(=O)(=O)NC(=O)c1cc(C)n(-c2cccc(Cl)c2Cl)n1` [Example 306], the pest or weed control at 20 ppm in the experiment with Myzus persicae [2] turned out to be 100%. The same measure, in the same setting: to `COc1ccc(Br)cc1S(=O)(=O)NC(=O)c1nc(-c2c(F)cccc2F)n(C)n1` [Example 327] belongs 90%; to `Cn1cc(C(=O)NS(=O)(=O)c2cnc(Cl)s2)nc1-c1c(F)cccc1F` [Example 345], 90%; to `Cc1nn(C)c(Cl)c1S(=O)(=O)NC(=O)c1cn(C)c(-c2c(F)cccc2F)n1` [Example 348], 100%. The same measure, in the same setting: the same measure for `Cc1cccc(OS(C)(=O)=O)c1S(=O)(=O)NC(=O)c1cn(C)c(-c2c(F)cccc2F)n1` [Example 368]: 90%; for `O=C(NS(=O)(=O)c1ccccc1Cl)c1c[nH]c(-c2c(F)cccc2F)n1` [Example 412]: 90%; for `Cc1[nH]c(C(=O)NS(=O)(=O)c2ccccc2Cl)nc1-c1ccccc1Cl` [Example 418]: 90%.

In the case of `Cn1cc(C(=O)NS(=O)(=O)c2cc(C#N)ccc2Cl)nc1-c1c(F)cccc1F` [Example 452], the pest or weed control at 20 ppm in the experiment with Myzus persicae [2] is 100%.

Consider `CCc1[nH]c(-c2cc(C)cc(C)c2)nc1C(=O)NS(=O)(=O)c1ccccc1C` [Example 470], for which the pest or weed control at 20 ppm in the experiment with Myzus persicae [2] is 100%. Still for that read-out and setting: to `COc1ccc(OC)c(S(=O)(=O)NC(=O)c2cn(C)c(-c3ccccc3S(C)(=O)=O)n2)c1` [Example 509] belongs 100%.

Turning to `COc1ccccc1S(=O)(=O)NC(=O)c1cn(C)c(-c2csc3ccccc23)n1` [Example 531], the pest or weed control at 20 ppm in the experiment on Myzus persicae [2] worked out at 90%.

Consider `CCc1[nH]c(-c2ccc(Cl)cc2)nc1C(=O)NS(=O)(=O)C(C)C` [Example 601], for which the pest or weed control at 20 ppm in the experiment with Myzus persicae [2] amounted to 90%.

With `CC(C)c1cccc(-c2nc(C(=O)NS(=O)(=O)c3ccccc3Cl)c(C(C)C)[nH]2)c1` [Example 612], the pest or weed control at 20 ppm in the experiment on Myzus persicae [2] was found to be 100%. For the compound `COc1ccc(Cl)c(S(=O)(=O)NC(=O)c2nc(-c3ccc(Cl)c(Cl)c3)[nH]c2C)c1` [Example 615], the pest or weed control at 20 ppm with Myzus persicae [2] came out at 100%.

Regarding `Cc1[nH]c(-c2cccc(C(C)C)c2)nc1C(=O)NS(=O)(=O)c1ccccc1Cl` [Example 617], the pest or weed control at 20 ppm in the experiment on Myzus persicae [2] came out at 100%. Regarding `COc1ccc(Cl)c(S(=O)(=O)NC(=O)c2nc(-c3cccc(Cl)c3)[nH]c2C)c1` [Example 619], the pest or weed control at 20 ppm with Myzus persicae [2] was found to be 100%. `Cc1[nH]c(-c2cccc(C(C)C)c2)nc1C(=O)NS(=O)(=O)C(C)C` [Example 620]: the pest or weed control at 20 ppm in the experiment with Myzus persicae [2] is 90%.
